Assay results taken from US8129425B2, “Small organic molecule regulators of cell proliferation” (Curis, Inc., priority 2000, dated 2012).

Tests used:
[1] = system: malonate induced striatal lesion; assay: Rat malonate lesion model of Huntington's disease; format: in vivo; conditions: 300 μM in Alzet pump into brain ventricles, 1 μl/hr for 6 days pretreatment; vs vehicle, p=0.0159
Procedure: Malonate is a mitochondrial toxin and defects in mitochondrial energy metabolism are thought to play a role in the pathology of neurodegenerative diseases such as HD. When malonate is injected into the rat striatum a lesion forms in this brain region. The experiments described below tested whether the Hh agonist would reduce the size of the malonate induced striatal lesion. Hh agonist was administered directly into the brain ventricles of male SD rats via a cannula attached to an osmotic Alzet pump. […] After 6 days of pretreatment with compound, malonate was injected directly into the brain striatum and the Alzet pump was removed. Four days later rats were euthanized and the brains were sliced into 2 mm slabs. The slices were placed in a 2% solution (TTC) that stains living tissue red and the striatal infarct white. The size of the infarct (% infarct) was measured using image analysis software and the data were analyzed by one-way ANOVA followed by appropriate post-hoc tests (p<0.05).

[2] = system: hedgehog-responsive Gli-Luc reporter-construct; assay: Gli-Luc hedgehog pathway reporter assay in [10T1/2(s12)] cells; format: cell-based, murine; conditions: Table 1
Procedure: To measure the hedgehog agonist activity of compounds, we used [10T1/2(s12)] cells containing the hedgehog-responsive Gli-Luc reporter-construct. In each MTP (MicroTiter Plate; 96-well plate), 10,000-20,000 cells were plated per well, in full media (10% FBS). After about 24-48 hr, plates were switched to low-serum media (=0.5%. FBS). Subsequently, a test compound was added at 1-5 μM in the presence or absence of octyl-hedgehog (see below). After another 24 hr, the media from the MTPs was discarded and replaced with luciferase assay-mix, containing lysis-buffer with luciferase substrate. The plates were incubated at RT for about 15-30 min and read in a luminometer.
Plates were incubated for 48 hr before switching to low-serum. Compounds were screened at 1-2 μM in the presence of Hh protein (0.01 μg/ml; EC30=about 30% of max-induced activity).
Plates were incubated for 24 hr before switching to low-serum. Compounds were screened at 5 μM without adding Hh protein.
From Screen A, we identified hits identified in FIGS. 32 and 33. The 1,4-diaminocyclohexane subunit of the compounds of FIG. 32 which include this moiety have the two amino substituents disposed in a trans-relationship, e.g., both substituents equatorial on the cyclohexane subunit. These hits were confirmed in Screen B. The data shown in FIGS. 34a and 34b essentially involved dosing the two compounds in both assays (Gli-Luc & SV-Luc).
The data from the Gli-Luc assay is converted to percent activity where full activity with Hh protein is set at 100% (FIG. 35; Table 1). […] Furthermore, the compounds show a more striking induction in the presence of hedgehog (EC50=0.2-0.3 μM, ECmax=70-90% of max induced activity with Hh protein), indicating a synergy between the compounds and Hh protein, consistent with the compounds serving as agonists for the hedgehog pathway.

SVZ precursor cells = assay: SVZ precursor cell proliferation (BrdU) after direct brain administration in adult rats; format: in vivo, rat; conditions: 200 μM in pump into brain ventricles, 0.5 μl/hr for 6 days; p<0.05
Procedure: Hh agonist was administered directly into the brain ventricles of male SD rats via a cannula attached to an osmotic Alzet pump. The pumps were filled with either vehicle (5% 2-hydroxypropyl-B-cyclodextrin, 4.35% Mannitol, 0.2% DMSO) or Hh agonist (U″ ranging from 10-600 μM) and the pump released compound into the ventricles at constant rate of 0.5 μl/hr for 6 days. After 6 days of pretreatment with compound, animals were injected with Bromodeoxyuridine (BrdU, 50 mg/kg, ip) to label dividing cells. Two hours after BrdU treatment, rats were euthanized and perfused with fixative. Brains were collected and processed for BrdU immunohistochemistry. The number of BrdU-immunoreactive (BrdU-IR) cells was then counted in the SVZ on both the sides of the brain with the cannula (ipsilateral) and without (contralateral).

[3] = system: nigrostriatal pathway (striatal DA and TH); assay: Mouse MPTP model of Parkinson's disease; format: in vivo; conditions: pretreatment 0.3, 1, 3, and 10 mg/kg po for 3 days before MPTP; seven days post-lesioning, vs vehicle
[4] = system: middle cerebral artery occlusion infarct; assay: Mouse MCAO model of stroke; format: in vivo
Procedure: In this animal model, a small suture is inserted into the common carotid artery and threaded directly into the circulatory system of the brain. The suture is placed such that it blocks blood flow though the middle cerebral artery (MCA occlusion), which is the primary source of blood to the forebrain. After a set period of time, here 90 min, the suture is removed and blood flow to the forebrain is restored (reperfusion). The temporary blockage of blood flow to the forebrain results in behavioral symptoms and brain pathology that mimic those seen in human stroke patients. In the brain, within 24 hr post-MCA occlusion an infarct is visible using a stain (TTC) that stains living tissue red and the infarcted area white. The infarct following a 90 min MCAO usually involves both cortical and subcortical brain regions. In this study, mice were treated for 3 days (1/day) prior to MCAO with either vehicle (0.5% methyl cellulose, 0.2% Tween-80/0.9% NaCl, n=12) or the Hh agonist X″ (20 mg/kg, po, n=11). Animals were then subjected to 90 min MCAO followed by reperfusion. Approximately 24 hr after the start of occlusion ([…] of reperfusion) mice were euthanized and the brain sectioned into 2 mm slabs. The brain slices were stained with TTC to show the infarcted area of the brain. The infarct area/total forebrain (% infarct) was analyzed by measured and statistically analyzed. Male mice (7-8 wks of age) were subjected to 90 min MCAO followed by reperfusion. Animals were then treated with either vehicle (n=11) or the Hh agonist X″ (20 mg/kg, po, n=12) at the onset of reperfusion (90 min post-occlusion). Twenty-four hours after the onset of MCAO mice were euthanized, the brain sectioned into 2 mm slabs and slices stained with TTC for infarct size analysis.

[5] = system: neural precursor cells (SVZ and SG); assay: Neural precursor cell proliferation (BrdU) after oral administration in adult mouse; format: in vivo; conditions: 7 days BID, 10 mg/kg or 25 mg/kg
Procedure: To test whether oral administration of the Hh agonist would affect proliferation of precursor cells, mice were dosed daily (once or twice/day, po) with either vehicle or the Hh agonist X″ for 1-7 days. On the appropriate day, mice were injected with BrdU (ip) and 2 hours later euthanized, perfused with fixative and brains processed for BrdU immunohistochemistry. The number of BrdU-IR cells was counted in both the SVZ and subgranular zone of the hippocampal dentate gyrus (SG).
The data shown in FIGS. 57 and 58 are from a study in which mice were dosed orally for 7 days (BID) with either vehicle (n=4) or Hh agonist X″ (10 mg/kg, n=3 or 25 mg/kg, n=3). The day after the final dose, mice were injected with BrdU and 2 hrs. later brains were collected, processed, and analyzed as described above.

| SMILES | size of malonate-induced infarct (% infarct) [1] | EC50 [2] [nM] | number of BrdU-IR cells in SVZ (SVZ precursor cells) | attenuation of damage to the nigrostriatal pathway (striatal DA and TH activity) [3] [%] | cortical and subcortical lesion size ([4]; post-MCAO treatment 20 mg/kg po at onset of reperfusion) | size of the infarct ([4]; post-MCAO treatment 20 mg/kg po at onset of reperfusion, p<0.05) | cortical infarct size ([4]; pre-MCAO treatment 20 mg/kg po 1/day for 3 days, p=0.052) | total infarct size ([4]; pre-MCAO treatment 20 mg/kg po 1/day for 3 days, p=0.057) | number of proliferating cells in the SG of the dentate gyrus [5] | number of BrdU labeled cells in the SVZ ([5]; p<0.05) |
| --- | --- | --- | --- | --- | --- | --- | --- | --- | --- | --- |
| CN[C@H]1CC[C@H](N(Cc2cccc(-c3ccncc3)c2)C(=O)c2sc3c(F)ccc(F)c3c2Cl)CC1 [U′′] | reduced the size of the malonate-induced infarct | < 5 | dramatically increased on both sides of the brain |  |  |  |  |  |  |  |
| CN[C@H]1CC[C@H](N(Cc2ccc(OC)c(-c3ccc(C#N)cc3)c2)C(=O)c2sc3c(F)ccc(F)c3c2Cl)CC1 [X′′] |  | < 5 |  | ~260 | dramatically reduced both cortical and subcortical lesion size | significantly decreased the size of the infarct | marked reduction in cortical infarct size | dramatically reduced | increased the number of proliferating cells in the SG of the dentate gyrus | increased the number of BrdU labeled cells in the SVZ |
